Data set [1] has as its system adult sitting and lying blood pressure. Nature of the data set: Clinical test data on the instructions of Irbesartan (Aprovel). The data set is classed as in vivo, human. To be noted: 150-300 mg daily for adults.
Data set [2] deals with hereditary hypertension rats (SHR). The data set is described as follows: Experiment 1: hypotensive effect of alcohol-water dual-extraction of Radix Paeoniae Alba on SHR, tail arterial blood pressure. The note with it: 15 mg/Kg body weight. It counts as in vivo, rat. An excerpt: Rats: old age (over 48 weeks old) hereditary hypertension rats (SHR) and the normal controls were Wistar rats. Rat blood pressure measurement: BP-98 A type non-invasive tail arterial blood pressure measuring instrument, Softron Co., Ltd. (Japan). Grouping treatment: All rats were adaptively fed for a week, measured with blood pressure and weight, and set into groups. SHR rats were divided into alcohol-water dual-extraction of Radix Paeoniae Alba large dosage group for the dosage of 3.2 g/kg body weight, alcohol-water dual-extraction of Radix Paeoniae Alba medium dosage group for the dosage of 0.8 g/kg body weight, alcohol-water dual-extraction of Radix Paeoniae Alba small dosage group for the dosage of 0.2 g/kg body weight, alcohol extraction of Radix Paeoniae Alba group for the dosage of 0.8 g/kg body weight, water extraction of Radix Paeoniae Alba group for the dosage of 0.8 g/kg body weight, Radix Paeoniae Alba powder group for the dosage of 0.8 g/kg body weight; utilizing gastric infusion; hypertension model control group receives equal amount of physiological saline; Irbesartan control group receives 15 mg/Kg body weight of Irbesartan; and normal control group receives equal amount of physiological saline. Each group has 8 rats. The treatment last for 3 weeks (multiple of 3-12 weeks of treatments are performed, the results can be repeated, and typical experimental results are reported below). Blood pressure measurement: The Rats were pre-heated to 38° C. for 5-10 mins to avoid less blood flow of the tail that affects the pressure measurement. Three measurements are continuously carried out as the rat was in an awake and quiet state. The average value of the 3 measurements was considered as the blood pressure of the rat.

Data set [3] shares this test system. The data set is described as follows: Experiment 2: hypotensive effect of the sample of the Embodiment 1 on SHR, tail arterial blood pressure. The data set is classed as in vivo, rat. The note with it: 15 mg/Kg body weight. An excerpt: Rats: old age (over 48 weeks old) hereditary hypertension rats (SHR) and the normal controls were Wistar rats. Rat blood pressure measurement: BP-98 A type non-invasive tail arterial blood pressure measuring instrument, Softron Co., Ltd. (Japan). 1. Grouping treatment: All rats were adaptively fed for a week, measured with blood pressure and weight, and set into groups. SHR rats were grouped: sample of the Embodiment 1 (alcohol-water dual-extraction of Radix Paeoniae Alba with Dendrobium Officinale powder added)-large dosage group for the dosage of 3.5 g/kg body weight, sample of the Embodiment 1-medium dosage group for the dosage of 1.4 g/kg body weight, sample of the Embodiment 1-small dosage group for the dosage of 0.35 g/kg body weight, Dendrobium Officinale powder for the dosage of raw medicine of 0.8 g/kg body weight (which is the same as the raw medicine amount of the Dendrobium Officinale powder (0.8 g/kg body weight) contained in 1.4 g/Kg body weight of the sample of the Embodiment 1), alcohol-water dual-extraction of Radix Paeoniae Alba for the dosage of raw medicine of 0.6 g/kg body weight (which is the same as the raw medicine amount of the Radix Paeoniae Alba (0.6 g/kg body weight) contained in 1.4 g/Kg body weight of the sample of the Embodiment 1); utilizing gastric infusion; hypertension model control group receives equal amount of physiological saline; Irbesartan control group receives 15 mg/Kg body weight of Irbesartan; and normal control group receives equal amount of physiological saline. Each group has 8 rats. The treatment last for 3 weeks (multiple of 3-12 weeks of treatments are performed, the results can be repeated, and typical experimental results are reported below). 2. Blood pressure measurement: The Rats were pre-heated to 38° C. for 5-10 mins to avoid less blood flow of the tail that affects the pressure measurement. Three measurements are continuously carried out as the rat was in an awake and quiet state. The average value of the 3 measurements was considered as the blood pressure of the rat.

Data set [4] relates to adult sitting and lying blood pressure. To be noted: adult daily dosage of 150-300 mg, cited from earlier work.
The next data set deals with normal Wistar rat. Nature of the data set: Experiment 3: blood pressure effect of the sample of the Embodiment 1 on normal rats. It counts as in vivo. To be noted: 5 mg medicine/kg body weight; for diastolic pressure / systolic pressure: normal Wistar rats. The protocol: Rat: 12 Weeks Old Normal Wistar Rat.
Rat blood pressure measurement: BP-98 A type non-invasive tail arterial blood pressure measuring instrument, Softron Co., Ltd. (Japan).
Grouping treatment: All rats were adaptively fed for a week, measured with blood pressure and weight, and set into groups. […] Ten rats for each group, treating for 2 weeks.
Blood pressure measurement: The Rats were pre-heated to 38° C. for 5-10 mins to avoid less blood flow of the tail that affects the pressure measurement. Three measurements are continuously carried out as the rat was in an awake and quiet state. The average value of the 3 measurements was considered as the blood pressure of the rat. The blood pressure is measured prior to the treatment and 2 hours after each administration every week.

Where [5] appears, read: Treated for 1 Week, 2 hours after administration.
The mark [6] stands for this setting: Treated for 2 Weeks, 2 hours after administration.
Where [7] appears, read: Treated for 3 Weeks, 2 hours after administration.
Setting [8] is: Treat 3 weeks, 24 hrs, 15 mg/kg.
Where [9] appears, read: sitting and lying blood pressure.

This is an account of results in patent US20240252576A1, “Application Method of Radix Paeoniae Alba and Dendrobium Officinale for Preparing Drug for Treatment of Hypertension” (Hangzhou Danhe Pharmaceutical Co., Ltd., priority 2018, published 2024).

On to `CCCCC1=NC2(CCCC2)C(=O)N1Cc1ccc(-c2ccccc2-c2nnn[nH]2)cc1` [Irbesartan], for which, in data set [1] (calculated from intermediate values 6.5 mmHg/0.7), the “hypotensive extent in the hypotensive peak, diastolic pressure” value is on record as 9.29 mmHg. The “hypotensive extent in the hypotensive peak, systolic pressure” value in data set [1] (calculated from intermediate values 10.5 mmHg/0.7) was 15.00 mmHg. The diastolic pressure was 166.7 ± 4.21 ^ mmHg in data set [2] (Before Treatment); 155.2 ± 3.25 mmHg in data set [2] (First Treated); 150.8 ± 2.89 mmHg in data set [2] (setting [5]); 151.8 ± 2.71 mmHg in data set [2] (setting [6]); 152.9 ± 2.89 mmHg in data set [2] (setting [7]); 166.7 ± 4.21 ^ mmHg in data set [3] (Before Treatment). Moreover, the diastolic pressure is given as 150.1 ± 3.25 mmHg in data set [3] (Treat 1 time, 2 hrs); 156.6 ± 3.57^Δ mmHg in data set [3] (Treat 1 time, 24 hrs); 149.7 ± 2.36 mmHg in data set [3] (Treat 1 week, 2 hrs); 155.3 ± 2.36 mmHg in data set [3] (Treat 1 week, 24 hrs); 147.4 ± 3.46 mmHg in data set [3] (Treat 2 weeks, 2 hrs); 156.2 ± 3.25 mmHg in data set [3] (Treat 2 weeks, 24 hrs). Moreover, the diastolic pressure in data set [3] (Treat 3 weeks, 2 hrs, 15 mg/kg) came out at 149.5±3.24 mmHg; in data set [3] (setting [8]), 154.1±2.08 mmHg. Also, the systolic pressure in data set [2] (Before Treatment) is recorded as 215.2 ± 4.45 ^ mmHg; in data set [2] (First Treated), 181.6 ± 3.12 mmHg; in data set [2] (setting [5]), 180.4 ± 3.56 mmHg; in data set [2] (setting [6]), 178.6 ± 2.04 mmHg; in data set [2] (setting [7]) it was 177.8 ± 2.12 mmHg; in data set [3] (Before Treatment), 215.3 ± 5.87 ^ mmHg. Moreover, the systolic pressure is listed as 182.4 ± 3.89 mmHg in data set [3] (Treat 1 time, 2 hrs); 198.7 ± 3.61 mmHg in data set [3] (Treat 1 time, 24 hrs); 181.2 ± 3.34 mmHg in data set [3] (Treat 1 week, 2 hrs); 197.8 ± 2.87 mmHg in data set [3] (Treat 1 week, 24 hrs); 177.5 ± 2.23 mmHg in data set [3] (Treat 2 weeks, 2 hrs); 199.9 ± 2.36 mmHg in data set [3] (Treat 2 weeks, 24 hrs). The systolic pressure in data set [3] (Treat 3 weeks, 2 hrs, 15 mg/kg) is 178.9±3.87 mmHg; in data set [3] (setting [8]), 198.7±2.24 mmHg. Also, the “ratio of the hypotensive valley and peak” value in data set [4] was 60-80%. For the same molecule, in data set [4] (setting [9]), the “average hypotensive valley value, diastolic” value is given as 5-8 mmHg. For the same molecule, in data set [4] (setting [9]), the “average hypotensive valley value, systolic” value was 8-13 mmHg.
Take `CCOC(=O)C1=C(COCCN)NC(C)=C(C(=O)OC)C1c1ccccc1Cl` (stereo not shown) [Norvasc, amlodipine besylate]: the “hypotensive effect to the normal blood pressure rats” value with normal Wistar rat is “triggered relatively great hypotensive effect”. Besides, the diastolic pressure in the data set on normal Wistar rat (Before Treatment) is recorded as 99.2 ± 4.87 mmHg; in the data set on normal Wistar rat (setting [5]), 71.8 ± 3.76 mmHg; in the data set on normal Wistar rat (setting [6]), 74.5±2.76 mmHg. Further, the systolic pressure is recorded as 137.6 ± 5.46 mmHg in the data set with normal Wistar rat (Before Treatment), 95.7 ± 4.69 mmHg in the data set on normal Wistar rat (setting [5]) and 99.2±5.75 mmHg in the data set with normal Wistar rat (setting [6]).
